ChEMBL document CHEMBL1697821, “Development of a phospholipidosis database and predictive quantitative structure-activity relationship (QSAR) models” (Toxicol Mech Methods, 2008)
*1 amine or outer side, *2 acyl side, *3 side chain or, on linkers, in order; H or OH if unused. Where a SMILES comes first, the peptide text is derived from it. Bridges are numbered along the chain shown (N, C = ends). [ ]: non-standard residue; d: D form. The star is where a group is joined. X1 = NC1=N[C@@H]([C@H](N[*:1])C(=O)[*:2])C[C@H](O)N1; ΔAla(Z-3-ureido) = NC(=O)N/C=C(\N)C(=O)O; β3hOrn = NCCC[C@H](N)CC(=O)*; Dap = NC[C@H](N)C(=O)O

The compounds below were run on Phospholipidosis (assay: Literature-mined public compounds from Kruhlak et al phospholipidosis modelling dataset).

Row | Compound | Phospholipidosis
1 | CN(C)[C@@H]1C(O)=C(C(N)=O)C(=O)[C@@]2(O)C(O)=C3C(=O)c4c(O)cccc4[C@@](C)(O)[C@H]3C[C@@H]12 [TETRACYCLINE] | Negative: confirmed by electron microscopy
2 | O=C1CCC(N2C(=O)c3ccccc3C2=O)C(=O)N1 (centres undefined) [THALIDOMIDE] | Negative: based on the absence of positive reported data from WMDD
3 | CS(=O)(=O)c1ccc([C@H](O)[C@@H](COC(=O)CN)NC(=O)C(Cl)Cl)cc1 [THIAMPHENICOL GLYCINATE] | Negative: based on the absence of positive reported data from WMDD
4 | CS(=O)(=O)c1ccc([C@@H](O)[C@@H](CO)NC(=O)C(Cl)Cl)cc1 [THIAMPHENICOL] | Negative: based on the absence of positive reported data from WMDD
5 | CCCC(C)C1(CC)C(=O)NC(=S)NC1=O (centres undefined) [THIOPENTAL] | Negative: based on the absence of positive reported data from WMDD
6 | CC(=O)OCCN1CCN(CCCN2c3ccccc3Sc3ccc(Cl)cc32)CC1 [THIOPROPAZATE] | Negative: based on the absence of positive reported data from WMDD
7 | CSc1ccc2c(c1)N(CCC1CCCCN1C)c1ccccc1S2 (centres undefined) [THIORIDAZINE] | Positive: weak inducer based on presence of foamy macrophages and cytoplasmic vacuolations
8 | CN1CCN(CC/C=C2/c3ccccc3Sc3ccc(S(=O)(=O)N(C)C)cc32)CC1 [THIOTHIXENE] | Negative: based on the absence of positive reported data from WMDD
9 | O=c1cc[nH]c(=S)[nH]1 [THIOURACIL] | Negative: based on the absence of positive reported data from WMDD
10 | Cc1ccsc1C(=CCCN1CCC[C@@H](C(=O)O)C1)c1sccc1C [TIAGABINE] | Negative: based on the absence of positive reported data from WMDD
11 | O=C(Cn1c(=O)sc2ccc(Cl)cc21)N1CCN(CCO)CC1 [TIARAMIDE] | Negative: based on the absence of positive reported data from WMDD
12 | Clc1ccccc1CN1CCc2sccc2C1 [TICLOPIDINE] | Negative: based on the absence of positive reported data from WMDD
13 | CCN(CC)CCOc1ccc2c(c1)C(=O)c1cc(OCCN(CC)CC)ccc1-2 [TILORONE] | Positive: strong inducer confirmed by electron microscopy
14 | O=C(O)C1CSCN1 (centres undefined) [TIMONACIC] | Negative: based on the absence of positive reported data from WMDD
15 | CC(S)C(=O)NCC(=O)O (centres undefined) [TIOPRONIN] | Negative: based on the absence of positive reported data from WMDD
16 | Clc1ccc2nsnc2c1NC1=NCCN1 [TIZANIDINE] | Negative: based on the absence of positive reported data from WMDD
17 | NC[C@H]1O[C@H](O[C@H]2[C@H](O)[C@@H](O[C@H]3O[C@H](CO)[C@@H](O)[C@H](N)[C@H]3O)[C@H](N)C[C@@H]2N)[C@H](N)C[C@@H]1O [TOBRAMYCIN] | Positive: strong inducer confirmed by electron microscopy
18 | Cc1ccc(C(=O)c2cc(O)c(O)c([N+](=O)[O-])c2)cc1 [TOLCAPONE] | Negative: based on the absence of positive reported data from WMDD
19 | Cc1ccc(C(=O)C(C)CN2CCCCC2)cc1 (centres undefined) [TOLPERISONE] | Negative: based on the absence of positive reported data from WMDD
20 | CN(C)CCOc1ccc(/C(=C(/CCCl)c2ccccc2)c2ccccc2)cc1 [TOREMIFENE] | Negative: based on the absence of positive reported data from WMDD
21 | COc1cccc(C2(O)CCCCC2CN(C)C)c1 (centres undefined) [TRAMADOL] | Negative: based on the absence of positive reported data from WMDD
22 | CCOC(=O)[C@H](CCc1ccccc1)N[C@@H](C)C(=O)N1[C@H](C(=O)O)C[C@H]2CCCC[C@@H]21 [TRANDOLAPRIL] | Negative: based on the absence of positive reported data from WMDD
23 | OCC(Br)(Br)Br [TRIBROMOETHANOL] | Negative: based on the absence of positive reported data from WMDD
24 | NS(=O)(=O)c1cc2c(cc1Cl)NC(C(Cl)Cl)NS2(=O)=O (centres undefined) [TRICHLORMETHIAZIDE] | Negative: based on the absence of positive reported data from WMDD
25 | O=C(CCCN1CCC(O)(c2cccc(C(F)(F)F)c2)CC1)c1ccc(F)cc1 [TRIFLUPERIDOL] | Negative: based on the absence of positive reported data from WMDD

Row | Compound | Phospholipidosis
26 | CCC(COC(=O)c1cc(OC)c(OC)c(OC)c1)(c1ccccc1)N(C)C (centres undefined) [TRIMEBUTINE] | Negative: based on the absence of positive reported data from WMDD
27 | CN1C(=O)OC(C)(C)C1=O [TRIMETHADIONE] | Negative: based on the absence of positive reported data from WMDD
28 | COc1cc(Cc2cnc(N)nc2N)cc(OC)c1OC [TRIMETHOPRIM] | Negative: based on the absence of positive reported data from WMDD
29 | COc1cc(C(=O)N2CCOCC2)cc(OC)c1OC [TRIMETOZINE] | Negative: based on the absence of positive reported data from WMDD
30 | CC(CN(C)C)CN1c2ccccc2CCc2ccccc21 (centres undefined) [TRIMIPRAMINE] | Positive: weak inducer based on presence of foamy macrophages and cytoplasmic vacuolations
31 | CCN(CC)CCOc1ccc(C(O)(Cc2ccc(Cl)cc2)c2ccc(C)cc2)cc1 (centres undefined) [TRIPARANOL] | Positive: strong inducer confirmed by electron microscopy
32 | CN(C)CCN(Cc1ccccc1)c1ccccn1 [TRIPELENNAMINE] | Positive: weak inducer based on presence of foamy macrophages and cytoplasmic vacuolations
33 | Cc1ccc(/C(=C\CN2CCCC2)c2ccccn2)cc1 [TRIPROLIDINE] | Negative: based on the absence of positive reported data from WMDD
34 | Cc1c(C)c2c(c(C)c1O)CCC(C)(COc1ccc(CC3SC(=O)NC3=O)cc1)O2 (centres undefined) [TROGLITAZONE] | Negative: based on the absence of positive reported data from WMDD
35 | CCCC(CCC)C(=O)O [VALPROIC ACID] | Negative: confirmed by electron microscopy
36 | CCCC(CCC)C(N)=O [VALPROMIDE] | Negative: based on the absence of positive reported data from WMDD
37 | COc1ccc(C(CN(C)C)C2(O)CCCCC2)cc1 (centres undefined) [VENLAFAXINE] | Negative: based on the absence of positive reported data from WMDD
38 | CC[C@]1(O)C[C@@H]2CN(CCc3c([nH]c4ccccc34)[C@@](C(=O)OC)(c3cc4c(cc3OC)N(C)[C@H]3[C@@](O)(C(=O)OC)[C@H](OC(C)=O)[C@]5(CC)C=CCN6CC[C@]43[C@@H]65)C2)C1 [VINBLASTINE] | Negative: confirmed by electron microscopy
39 | CC[C@]1(O)C[C@@H]2CN(CCc3c([nH]c4ccccc34)[C@@](C(=O)OC)(c3cc4c(cc3OC)N(C)[C@H]3[C@@](O)(C(N)=O)[C@H](O)[C@]5(CC)C=CCN6CC[C@]43[C@@H]65)C2)C1 [VINDESINE] | Negative: based on the absence of positive reported data from WMDD
40 | NCCC[C@H](N)CC(=O)N[C@H]1CNC(=O)[C@H]([C@H]2C[C@H](O)NC(N)=N2)NC(=O)/C(=C/NC(N)=O)NC(=O)[C@H](CO)NC(=O)[C@H](CO)NC1=O [VIOMYCIN] (β3hOrn-[Dap]SS[ΔAla(Z-3-ureido)][X1]; lactam 1-C) | Negative: based on the absence of positive reported data from WMDD
41 | CC(=O)CC(c1ccccc1)c1c(O)c2ccccc2oc1=O (centres undefined) [WARFARIN] | Negative: based on the absence of positive reported data from WMDD
42 | O=C[C@H](O)[C@@H](O)[C@H](O)CO [XYLOSE] | Negative: based on the absence of positive reported data from WMDD
43 | C[C@H]1CCC[C@H](O)CCCCCc2cc(O)cc(O)c2C(=O)O1 [ZERANOL] | Negative: based on the absence of positive reported data from WMDD
44 | Cc1cn([C@H]2C[C@H](N=[N+]=[N-])[C@@H](CO)O2)c(=O)[nH]c1=O [ZIDOVUDINE] | Negative: confirmed by electron microscopy
45 | CN(C)C/C=C(/c1ccc(Br)cc1)c1cccnc1 [ZIMELDINE] | Positive: strong inducer confirmed by electron microscopy
46 | O=C1Cc2cc(CCN3CCN(c4nsc5ccccc45)CC3)c(Cl)cc2N1 [ZIPRASIDONE] | Negative: based on the absence of positive reported data from WMDD
47 | COc1cccc2c1C(=O)c1c(O)c3c(c(O)c1C2=O)C[C@@](O)(/C(C)=N/NC(=O)c1ccccc1)C[C@@H]3O[C@H]1C[C@H](N)[C@H](O)[C@H](C)O1 [ZORUBICIN] | Negative: based on the absence of positive reported data from WMDD
48 | IVERMECTIN | Negative: based on the absence of positive reported data from WMDD
49 | POLYSORBATE 80 | Negative: based on the absence of positive reported data from WMDD
